“And” between values parts separate entries of the source, which are not always exact repeats. Equal values may be shown once. Read-outs that look alike come from different tables or passages of the source.
Legend:
[1] = target: T1, USP7cd (USP7 catalytic domain) (Homo sapiens, UniProt Q93009); test: Ub-AMC enzyme activity assay, IC50 determination; assay type: biochemical; details: 10 nM USP7cd, 500 nM Ub-AMC, 24 h pre-incubation at 20°C
T1 construct: USP7 catalytic domain (USP7CD) (208‐560); made in house
Method: Therefore, USP7 was incubated for 24 h with ten different compound concentrations, and IC50 values were then obtained with a fluorescent DUB substrate (Ub‐AMC) (Figure 9A–F). The pre‐incubation times were chosen to account for the slow covalent binding kinetics observed in the previous experiments.
The cleavage activity of USP7cd in the presence or absence of inhibitors was measured using Ubiquitin‐Aminomethylcoumarin (Ub‐AMC) (Enzo Life Sciences GmbH, Lörrach, Germany) as a fluorogenic substrate. The fluorescence was monitored using the CLARIOstar plate reader (BMG Labtech GmbH, Ortenberg, Germany) at 25°C at 360 nm excitation and 460 nm emission wavelengths. […] Each measurement was performed at least twice in duplicate. […] Ub‐AMC was added to a final concentration of 500 nM, and the fluorescence was measured after 1 h. The normalized dose‐response semi‐logarithmic curves were fitted using OriginPro2021 and the four‐parameter logistic function.
Different concentrations of compounds were pre-incubated with USP7 for 24 h at 20 °C in a rotating shaker in 25 mM Tris pH 8.0, 150mM NaCl, 5 mM TCEP supplemented with 0.2 mg/mL bovine serum albumin (BSA). Fluorescence was measured after 1 h of the addition of Ub-AMC. The dose response semi-logarithmic curves were fitted using OriginPro2021 and the four-parameter logistic function.

USP7 = target: T2, USP7 (Homo sapiens, UniProt Q93009); test: Differential scanning fluorimetry (DSF), melting temperature shift of USP7; assay type: binding; details: 8 µM protein, 250 µM compound (1:31.25)
T2 construct: USP7 catalytic domain (USP7CD) (208‐560); made in house
From the text: The influence of the synthesized compounds on the melting temperature (T m) of USP7 and its mutant USP7asoc (active site only cysteine) was investigated by DSF. USP7asoc only retains the catalytic Cys223 while all the other six cysteines are mutated to serine. DSF was selected for initial assessment since it is an efficient and rapid primary screening method readily available to our lab.
An important consideration when assessing covalent inhibitors is the time dependence of covalent target occupancy and thus potency, which is determined by the reaction kinetics of the covalent binding event. To allow for drawing conclusions on compounds with slower reaction kinetics, incubation times of 30 min, 4 h, and 24 h at 20°C were chosen for the DSF screen with USP7 (Table 1 and Figures 2 and 3). The threshold at which compounds were considered (de‐)stabilizers was defined at 0.5°C. In parallel, the intrinsic reactivity of a set of representative compounds was evaluated in a glutathione reactivity assay. […] Data obtained from the GSH reactivity studies are shown in Supporting Information S2: Table S2.1 and Figures S2.1–2.3.
The melting temperatures of USP7 and USP7asoc in the presence or absence of fragments were determined by DSF on a Qiagen Rotor‐Q Model‐5‐Plex HRM real‐time PCR instrument (Qiagen, Hilden, Germany). SYPRO Orange (Life Technologies Corporation, Eugene, OR, USA) was used as a fluorescent dye at a final concentration of 5x. The protein concentration was 8 µM, and the final compound concentration was 250 µM, corresponding to a protein‐to‐compound ratio of 1:31.25. All compounds were dissolved in dimethyl sulfoxide (DMSO) and the proteins in Tris buffer (25 mM Tris pH 8.0, 150 mM NaCl, 5 mM TCEP, 5% (v/v) DMSO). All measurements were performed after 30 min, 4 h, and 24 h of incubation and at least in triplicate. DSF experiments were carried out with a constant heating rate of 270°C/h. The temperature was ramped from 28°C to 60°C–70°C with excitation and emission filters set at 470 nm and 610 nm, respectively. The melting temperatures (T m) of USP7 and USP7asoc were determined from the maxima of the first derivatives of the melting curves in OriginPro2020 (OriginLab, Northampton, MA, USA). The ∆T m was calculated by subtraction of the T m of the protein sample with pure DMSO from the T m of the protein sample mixed with compound. Error propagation was used to average multiple runs for a compound. A compound was considered to be a hit if the shift in the ∆T m was at least 0.50°C [55].

[2] = supplement table, read-out: Biological Activity (IC50)

T2 sequence (Q93009 with tags, fused parts or gaps): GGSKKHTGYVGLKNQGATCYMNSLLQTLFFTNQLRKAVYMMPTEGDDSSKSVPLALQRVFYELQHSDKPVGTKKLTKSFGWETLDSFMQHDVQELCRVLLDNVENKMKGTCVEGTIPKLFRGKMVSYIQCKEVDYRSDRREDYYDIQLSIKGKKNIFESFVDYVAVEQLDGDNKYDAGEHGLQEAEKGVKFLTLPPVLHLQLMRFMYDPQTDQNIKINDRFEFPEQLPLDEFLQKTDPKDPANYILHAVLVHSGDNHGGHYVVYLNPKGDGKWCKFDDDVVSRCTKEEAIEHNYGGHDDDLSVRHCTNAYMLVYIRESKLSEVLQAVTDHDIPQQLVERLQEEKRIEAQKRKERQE
T1 sequence (Q93009 with tags, fused parts or gaps): as above

| SMILES | IC50 ([1]; read-out: IC50 USP7cd) | IC50 [1, 2] | ∆T m ± SD USP7 (USP7; 30 min incubation at 20°C) | ∆T m ± SD USP7 (USP7; 4 h incubation at 20°C) | ∆T m ± SD USP7 (USP7; 24 h incubation at 20°C) |
| --- | --- | --- | --- | --- | --- |
| CCn1cc(-c2cccc3cnc(Nc4nc(F)ccc4[N+](=O)[O-])cc23)cn1 [7c, 5‐(1‐Ethyl‐1H‐pyrazol‐4‐yl)‐N‐(6‐fluoro‐3‐nitropyridin‐2‐yl)isoquinolin‐3‐amine] | 36.2 µM and 36 µM | 36.2 ± 2.21 µM | –0.45 ± 0.12 °C | –0.45 ± 0 °C | – |
| Cn1ccc(-c2cccc3cnc(Nc4nc(F)ccc4[N+](=O)[O-])cc23)c1 [7b, N‐(6‐Fluoro‐3‐nitropyridin‐2‐yl)‐5‐(1‐methyl‐1H‐pyrrol‐3‐yl)isoquinolin‐3‐amine] | 56.6 µM and 57 µM | 56.6 ± 6.11 µM | –0.10 ± 0.09 °C | 0.00 ± 0 °C | 0.00 ± 0 °C |
| CCCn1cc(-c2cccc3cnc(Nc4nc(F)ccc4[N+](=O)[O-])cc23)cn1 [7d, N‐(6‐Fluoro‐3‐nitropyridin‐2‐yl)‐5‐(1‐propyl‐1H‐pyrazol‐4‐yl)isoquinolin‐3‐amine] | 26.8 µM and 27 µM | 26.8 ± 7.54 µM | –0.30 ± 0.06 °C | –0.18 ± 0.03 °C | – |

The next lines start with the values.

| IC50 ([1]; read-out: IC50 USP7cd) | IC50 [1, 2] | ∆T m ± SD USP7 (USP7; 30 min incubation at 20°C) | ∆T m ± SD USP7 (USP7; 4 h incubation at 20°C) | ∆T m ± SD USP7 (USP7; 24 h incubation at 20°C) | SMILES |
| --- | --- | --- | --- | --- | --- |
| > 1000 µM | – | –0.13 ± 0.09 °C | –0.40 ± 0.08 °C | –0.45 ± 0.09 °C | O=[N+]([O-])c1ccc(F)nc1Nc1cc2c(-c3ccc(-c4ccncc4)cc3)cccc2cn1 [7i, N‐(6‐Fluoro‐3‐nitropyridin‐2‐yl)‐5‐[4‐(pyridin‐4‐yl)phenyl]isoquinolin‐3‐amine] |
| 48.4 µM and 48 µM | 48.3 ± 5.68 µM | –0.23 ± 0.06 °C | 0.02 ± 0.03 °C | – | O=[N+]([O-])c1ccc(F)nc1Nc1cc2c(-c3cnn(C4CC4)c3)cccc2cn1 [7e, 5‐(1‐Cyclopropyl‐1H‐pyrazol‐4‐yl)‐N‐(6‐fluoro‐3‐nitropyridin‐2‐yl)isoquinolin‐3‐amine] |

Reference: article PMC12336439 (Archiv Der Pharmazie, 2025)
